Source: ChEMBL document CHEMBL5647694, “Novel orally bioavailable EZH1/2 dual inhibitors with greater antitumor efficacy than an EZH2 selective inhibitor” (Cancer Sci, 2017)

Key:
[1] = target: Activated CDC42 kinase 1 (Homo sapiens) (UniProt Q07912); assay: Inhibition of N-terminal GST-fused wild type human ACK catalytic domain (110 to 476 residues) expressed in baculovirus-infected Sf21 cells using WASP peptide as substrate at 1 uM in presence of ATP by Mobility shift assay
[2] = target: Ephrin type-A receptor 4 (Homo sapiens) (UniProt P54764); assay: Inhibition of N-terminal GST-fused human EPHA4 cytoplasmic domain (586 to 986 residues) expressed in baculovirus-infected Sf21 cells using Blk/Lyntide as substrate at 1 uM in presence of ATP by Mobility shift assay
[3] = target: Ephrin type-A receptor 5 (Homo sapiens) (UniProt P54756); assay: Inhibition of N-terminal GST-fused human EPHA5 catalytic domain (662 to 948 residues) expressed in baculovirus-infected Sf21 cells using Blk/Lyntide as substrate at 1 uM in presence of ATP by Mobility shift assay
[4] = target: Ephrin type-A receptor 8 (Homo sapiens) (UniProt P29322); assay: Inhibition of N-terminal GST-fused human EPHA8 catalytic domain (571 to 924 residues) expressed in baculovirus-infected Sf21 cells using Blk/Lyntide as substrate at 1 uM in presence of ATP by Mobility shift assay
[5] = target: Ephrin type-B receptor 4 (Homo sapiens) (UniProt P54760); assay: Inhibition of N-terminal GST-fused human EPHB4 cytoplasmic domain (577 to 987 residues) expressed in baculovirus-infected Sf21 cells using Blk/Lyntide as substrate at 1 uM in presence of ATP by Mobility shift assay
[6] = target: Receptor tyrosine-protein kinase erbB-2 (Homo sapiens) (UniProt P04626); assay: Inhibition of N-terminal His-tagged human HER2 cytoplasmic domain (676 to 1255 residues) expressed in baculovirus-infected Sf21 cells using Srctide as substrate at 1 uM in presence of ATP by Mobility shift assay
[7] = target: Receptor tyrosine-protein kinase erbB-4 (Homo sapiens) (UniProt Q15303); assay: Inhibition of N-terminal GST-fused human HER4 cytoplasmic domain (676 to 1308 residues) expressed in baculovirus infected Sf21 cells using Srctide as substrate at 1 uM in presence of ATP by Mobility shift assay
[8] = target: Proto-oncogene tyrosine-protein kinase Src (Homo sapiens) (UniProt P12931); assay: Inhibition of N-terminal GST-tagged full length human SRC (1 to 536 residues) expressed in baculovirus-infected Sf21 cells using Srctide as substrate at 1 uM in presence of ATP by Mobility shift assay
[9] = target: Non-receptor tyrosine-protein kinase TNK1 (Homo sapiens) (UniProt Q13470); assay: Inhibition of N-terminal GST-tagged human TNK1 catalytic domain (106 to 390 residues) expressed in baculovirus-infected Sf21 cells using CSKtide as substrate at 1 uM in presence of ATP by Mobility shift assay
[10] = target: Aurora kinase A (Homo sapiens) (UniProt O14965); assay: Inhibition of N-terminal GST-fused full length human AurA (1 to 403 residues) expressed in baculovirus-infected Sf21 cells using Kemptide as substrate at 1 uM in presence of ATP by Mobility shift assay
[11] = target: Serine/threonine-protein kinase Chk2 (Homo sapiens) (UniProt O96017); assay: Inhibition of N-terminal GST-fused full length human CHK2 (1 to 543 residues) expressed in baculovirus expression system using CHKtide as substrate at 1 uM in presence of ATP by Mobility shift assay
[12] = target: Mitogen-activated protein kinase 3 (Homo sapiens) (UniProt P27361); assay: Inhibition of N-terminal GST-fused full length human ERK1 (1 to 379 residues) expressed in Escherichia coli expression system using Modified Erktide as substrate at 1 uM in presence of ATP by Mobility shift assay
[13] = target: Glycogen synthase kinase-3 beta (Homo sapiens) (UniProt P49841); assay: Inhibition of N-terminal GST-fused full length human GSK3-beta (1 to 420 residues) expressed in baculovirus expression system using CREBtide-p as substrate at 1 uM in presence of ATP by Mobility shift assay
[14] = target: Mitogen-activated protein kinase kinase kinase kinase 4 (Homo sapiens) (UniProt O95819); assay: Inhibition of N-terminal GST-fused human HGK catalytic domain (1 to 328 residues) expressed in baculovirus expression system using Moesin-derived peptide as substrate at 1 uM in presence of ATP by Mobility shift assay
[15] = target: Homeodomain-interacting protein kinase 4 (Homo sapiens) (UniProt Q8NE63); assay: Inhibition of N-terminal GST-fused full length human HIPK4 (1 to 616 residues) expressed in baculovirus expression system using DYRKtide-F as substrate at 1 uM in presence of ATP by Mobility shift assay
[16] = target: SRSF protein kinase 3 (Homo sapiens) (UniProt Q9UPE1); assay: Inhibition of N-terminal GST-fused full length human MSSK1 (1 to 567 residues) expressed in baculovirus expression system using DYRKtide-F as substrate at 1 uM in presence of ATP by Mobility shift assay
[17] = target: Serine/threonine-protein kinase 4 (Homo sapiens) (UniProt Q13043); assay: Inhibition of N-terminal GST-fused full length human MST1 (1 to 487 residues) expressed in baculovirus expression system using IRS1 as substrate at 1 uM in presence of ATP by Mobility shift assay
[18] = target: Ribosomal protein S6 kinase beta-1 (Homo sapiens) (UniProt P23443); assay: Inhibition of N-terminal GST-fused human p70S6K catalytic domain (1 to 421 residues) expressed in baculovirus expression system using S6K2 peptide as substrate at 1 uM in presence of ATP by Mobility shift assay
[19] = target: Protein kinase C zeta type (Homo sapiens) (UniProt Q05513); assay: Inhibition of N-terminal GST-fused human full length PKC-zeta (1 to 592 residues ) expressed in baculovirus expression system using PKC peptide as substrate at 1 uM in presence of ATP by Mobility shift assay
[20] = target: Rho-associated protein kinase 1 (Homo sapiens) (UniProt Q13464); assay: Inhibition of N-terminal GST-fused human ROCK1 catalytic domain (1 to 477 residues) expressed in baculovirus expression system using LIMKtide as substrate at 1 uM in presence of ATP by Mobility shift assay
[21] = target: Rho-associated protein kinase 2 (Homo sapiens) (UniProt O75116); assay: Inhibition of N-terminal GST-fused human ROCK2 catalytic domain (1 to 553 residues) expressed in baculovirus expression system using LIMKtide as substrate at 1 uM in presence of ATP by Mobility shift assay
[22] = target: Serine/threonine-protein kinase Sgk3 (Homo sapiens) (UniProt Q96BR1); assay: Inhibition of N-terminal GST-fused truncated human SGK3 (119 to 496 residues) expressed in baculovirus expression system using SGKtide as substrate at 1 uM in presence of ATP by Mobility shift assay

Sequence of Receptor tyrosine-protein kinase erbB-4 (Homo sapiens) (Q15303 whole entry, the tested form may be a part): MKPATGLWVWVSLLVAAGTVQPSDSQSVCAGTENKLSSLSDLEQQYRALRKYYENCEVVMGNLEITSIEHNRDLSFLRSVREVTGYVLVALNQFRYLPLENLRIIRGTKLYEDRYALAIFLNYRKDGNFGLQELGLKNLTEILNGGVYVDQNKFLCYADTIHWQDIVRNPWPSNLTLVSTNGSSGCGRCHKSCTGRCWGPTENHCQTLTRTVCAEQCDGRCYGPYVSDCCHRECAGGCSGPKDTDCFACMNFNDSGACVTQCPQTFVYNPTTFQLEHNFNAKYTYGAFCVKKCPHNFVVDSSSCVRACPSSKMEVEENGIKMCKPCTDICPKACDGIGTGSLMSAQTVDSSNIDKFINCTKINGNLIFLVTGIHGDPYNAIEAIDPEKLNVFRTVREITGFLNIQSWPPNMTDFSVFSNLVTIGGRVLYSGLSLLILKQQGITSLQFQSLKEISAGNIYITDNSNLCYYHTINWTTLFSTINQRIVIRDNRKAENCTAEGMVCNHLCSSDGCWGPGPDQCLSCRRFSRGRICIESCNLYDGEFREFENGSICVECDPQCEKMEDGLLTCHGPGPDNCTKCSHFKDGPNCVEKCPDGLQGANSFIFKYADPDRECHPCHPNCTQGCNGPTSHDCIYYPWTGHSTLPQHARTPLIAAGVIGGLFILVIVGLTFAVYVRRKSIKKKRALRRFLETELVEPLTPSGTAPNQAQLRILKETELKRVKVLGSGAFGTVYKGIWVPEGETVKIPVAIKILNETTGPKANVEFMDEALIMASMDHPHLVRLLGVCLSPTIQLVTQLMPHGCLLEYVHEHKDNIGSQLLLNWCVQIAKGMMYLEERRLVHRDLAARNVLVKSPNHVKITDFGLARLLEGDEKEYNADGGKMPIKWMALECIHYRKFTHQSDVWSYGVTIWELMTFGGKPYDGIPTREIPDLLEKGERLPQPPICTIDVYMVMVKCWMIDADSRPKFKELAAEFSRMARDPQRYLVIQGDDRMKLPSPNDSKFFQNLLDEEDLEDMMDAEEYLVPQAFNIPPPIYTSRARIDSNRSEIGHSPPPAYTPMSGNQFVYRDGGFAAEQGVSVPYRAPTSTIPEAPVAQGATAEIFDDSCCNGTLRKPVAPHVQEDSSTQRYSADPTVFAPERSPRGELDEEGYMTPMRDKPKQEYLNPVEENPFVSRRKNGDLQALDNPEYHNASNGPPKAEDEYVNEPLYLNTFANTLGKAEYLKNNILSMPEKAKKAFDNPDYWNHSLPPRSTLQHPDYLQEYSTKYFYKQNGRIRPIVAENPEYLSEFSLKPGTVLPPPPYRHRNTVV
Sequence of SRSF protein kinase 3 (Homo sapiens) (Q9UPE1 whole entry, the tested form may be a part): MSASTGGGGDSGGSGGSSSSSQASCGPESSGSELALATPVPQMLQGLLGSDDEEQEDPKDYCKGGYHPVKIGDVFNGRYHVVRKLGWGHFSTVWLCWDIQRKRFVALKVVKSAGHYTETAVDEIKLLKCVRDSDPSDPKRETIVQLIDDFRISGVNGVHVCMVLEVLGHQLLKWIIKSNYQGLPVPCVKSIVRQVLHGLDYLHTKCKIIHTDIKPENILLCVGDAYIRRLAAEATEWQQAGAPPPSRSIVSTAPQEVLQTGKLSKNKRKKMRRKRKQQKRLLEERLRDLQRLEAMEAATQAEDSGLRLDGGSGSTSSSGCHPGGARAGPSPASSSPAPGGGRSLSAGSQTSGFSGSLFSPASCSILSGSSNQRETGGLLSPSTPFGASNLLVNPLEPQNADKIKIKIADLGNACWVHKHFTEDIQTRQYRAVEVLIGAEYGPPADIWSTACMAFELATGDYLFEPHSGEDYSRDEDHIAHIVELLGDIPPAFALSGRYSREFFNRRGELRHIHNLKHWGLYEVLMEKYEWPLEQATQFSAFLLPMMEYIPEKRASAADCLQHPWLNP
Sequence of Rho-associated protein kinase 1 (Homo sapiens) (Q13464 2-1354 limits assumed): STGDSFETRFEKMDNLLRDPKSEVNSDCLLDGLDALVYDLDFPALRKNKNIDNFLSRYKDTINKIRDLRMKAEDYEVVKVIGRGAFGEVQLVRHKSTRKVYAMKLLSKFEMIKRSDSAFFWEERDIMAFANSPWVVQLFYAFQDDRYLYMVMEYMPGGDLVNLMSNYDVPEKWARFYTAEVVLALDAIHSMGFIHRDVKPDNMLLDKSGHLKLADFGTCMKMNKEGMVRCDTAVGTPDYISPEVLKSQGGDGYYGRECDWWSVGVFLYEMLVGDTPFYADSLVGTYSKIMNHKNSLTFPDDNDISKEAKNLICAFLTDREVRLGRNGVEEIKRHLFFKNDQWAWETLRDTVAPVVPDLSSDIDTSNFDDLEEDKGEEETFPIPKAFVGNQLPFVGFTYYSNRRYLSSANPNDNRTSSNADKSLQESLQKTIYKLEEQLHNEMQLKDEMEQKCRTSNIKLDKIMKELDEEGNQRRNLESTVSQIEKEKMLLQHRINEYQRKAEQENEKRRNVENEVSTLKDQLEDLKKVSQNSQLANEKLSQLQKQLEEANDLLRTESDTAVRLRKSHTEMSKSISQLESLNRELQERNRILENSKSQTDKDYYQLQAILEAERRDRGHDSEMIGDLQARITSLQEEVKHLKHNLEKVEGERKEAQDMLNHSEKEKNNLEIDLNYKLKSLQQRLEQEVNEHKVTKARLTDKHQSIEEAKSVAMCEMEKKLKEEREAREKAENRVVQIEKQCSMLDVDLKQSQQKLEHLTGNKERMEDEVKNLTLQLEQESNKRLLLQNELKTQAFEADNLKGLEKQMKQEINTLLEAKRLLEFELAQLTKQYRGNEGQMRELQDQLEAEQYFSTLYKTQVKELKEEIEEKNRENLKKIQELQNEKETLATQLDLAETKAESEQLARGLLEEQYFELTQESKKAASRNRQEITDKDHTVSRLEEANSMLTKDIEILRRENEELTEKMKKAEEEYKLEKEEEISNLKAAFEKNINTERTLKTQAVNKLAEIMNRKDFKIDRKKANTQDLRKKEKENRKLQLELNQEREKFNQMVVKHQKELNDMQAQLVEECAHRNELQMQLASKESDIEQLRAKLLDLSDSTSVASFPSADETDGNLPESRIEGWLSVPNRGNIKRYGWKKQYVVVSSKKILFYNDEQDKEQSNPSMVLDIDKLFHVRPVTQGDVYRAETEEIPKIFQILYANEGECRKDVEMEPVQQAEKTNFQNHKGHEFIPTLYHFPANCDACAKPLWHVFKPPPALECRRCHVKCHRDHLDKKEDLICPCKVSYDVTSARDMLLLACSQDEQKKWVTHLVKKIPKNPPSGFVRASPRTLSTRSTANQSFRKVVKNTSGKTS
Sequence of Aurora kinase A (Homo sapiens) (O14965 whole entry, the tested form may be a part): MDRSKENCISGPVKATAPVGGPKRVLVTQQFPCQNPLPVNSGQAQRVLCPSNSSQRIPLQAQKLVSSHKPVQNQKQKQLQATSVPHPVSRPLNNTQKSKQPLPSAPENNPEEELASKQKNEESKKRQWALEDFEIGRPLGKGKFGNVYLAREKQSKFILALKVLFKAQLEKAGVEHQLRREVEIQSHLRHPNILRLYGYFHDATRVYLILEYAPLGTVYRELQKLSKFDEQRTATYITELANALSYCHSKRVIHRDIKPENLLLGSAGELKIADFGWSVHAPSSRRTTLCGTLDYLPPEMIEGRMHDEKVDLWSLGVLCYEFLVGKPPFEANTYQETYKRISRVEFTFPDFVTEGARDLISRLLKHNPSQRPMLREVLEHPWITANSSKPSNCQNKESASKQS
Sequence of Homeodomain-interacting protein kinase 4 (Homo sapiens) (Q8NE63 whole entry, the tested form may be a part): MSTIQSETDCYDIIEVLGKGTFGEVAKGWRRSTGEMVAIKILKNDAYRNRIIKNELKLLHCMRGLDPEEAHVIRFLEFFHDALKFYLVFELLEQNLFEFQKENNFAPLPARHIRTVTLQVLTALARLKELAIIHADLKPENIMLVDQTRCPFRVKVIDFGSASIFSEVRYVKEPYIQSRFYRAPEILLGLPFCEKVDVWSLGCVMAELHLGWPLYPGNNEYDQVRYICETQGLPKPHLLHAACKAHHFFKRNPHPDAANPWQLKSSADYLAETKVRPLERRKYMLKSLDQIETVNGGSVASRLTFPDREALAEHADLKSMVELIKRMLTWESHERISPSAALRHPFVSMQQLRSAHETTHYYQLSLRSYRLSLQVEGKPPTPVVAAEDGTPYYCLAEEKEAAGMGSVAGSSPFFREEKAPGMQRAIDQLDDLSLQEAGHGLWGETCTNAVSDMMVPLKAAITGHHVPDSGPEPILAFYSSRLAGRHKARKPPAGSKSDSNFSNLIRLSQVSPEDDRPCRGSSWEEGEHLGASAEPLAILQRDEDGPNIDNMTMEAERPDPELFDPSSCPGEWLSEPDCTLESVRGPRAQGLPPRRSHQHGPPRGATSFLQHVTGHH
Sequence of Non-receptor tyrosine-protein kinase TNK1 (Homo sapiens) (Q13470 whole entry, the tested form may be a part): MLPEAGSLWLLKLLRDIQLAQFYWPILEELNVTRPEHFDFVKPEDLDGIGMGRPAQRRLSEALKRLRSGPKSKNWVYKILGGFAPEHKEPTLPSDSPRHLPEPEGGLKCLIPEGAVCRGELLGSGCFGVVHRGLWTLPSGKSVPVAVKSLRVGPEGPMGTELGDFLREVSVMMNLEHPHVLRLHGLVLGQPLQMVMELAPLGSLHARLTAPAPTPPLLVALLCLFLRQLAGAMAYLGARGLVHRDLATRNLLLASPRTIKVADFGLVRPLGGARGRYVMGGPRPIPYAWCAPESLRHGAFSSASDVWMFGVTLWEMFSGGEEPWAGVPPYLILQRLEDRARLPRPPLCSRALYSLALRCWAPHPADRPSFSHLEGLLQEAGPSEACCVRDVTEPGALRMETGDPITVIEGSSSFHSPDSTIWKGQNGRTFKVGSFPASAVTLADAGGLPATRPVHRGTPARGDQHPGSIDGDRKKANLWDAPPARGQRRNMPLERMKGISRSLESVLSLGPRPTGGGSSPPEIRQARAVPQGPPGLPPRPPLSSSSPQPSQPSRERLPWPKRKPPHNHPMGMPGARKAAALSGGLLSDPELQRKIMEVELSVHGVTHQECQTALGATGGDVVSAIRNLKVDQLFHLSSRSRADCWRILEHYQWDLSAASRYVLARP

SMILES | inhibition [1] [%] | inhibition [2] [%] | inhibition [3] [%] | inhibition [4] [%] | inhibition [5] [%] | inhibition [6] [%] | inhibition [7] [%] | inhibition [8] [%] | inhibition [9] [%] | inhibition [10] [%] | inhibition [11] [%] | inhibition [12] [%] | inhibition [13] [%] | inhibition [14] [%] | inhibition [15] [%] | inhibition [16] [%] | inhibition [17] [%] | inhibition [18] [%] | inhibition [19] [%] | inhibition [20] [%] | also measured
Cc1cc(C)c(CNC(=O)c2cc(Cl)c3c(c2C)O[C@@](C)([C@H]2CC[C@H](N(C)C)CC2)O3)c(=O)[nH]1 [VALEMETOSTAT] | -1.2 | -3 | -3.4 | -5.3 | -4.7 | 5.6 | -0.2 | -7.6 | -6.8 | -0.5 | -2.2 | -4.1 | -7.1 | 0.4 | -3 | -5.4 | -1.9 | 1.5 | 9.3 | -2.5 | inhibition [21]: 3.3%; inhibition [22]: 0.3%
Cc1cc(C)c(CNC(=O)c2cc(Br)c3c(c2C)O[C@@](C)([C@H]2CC[C@H](N(C)C)CC2)O3)c(=O)[nH]1 | 0.2 | -4.3 | -6.3 | -7 | -6.1 | 6 | 2.6 | -4.9 | -3.4 | 0.6 | 0.7 | -2.6 | -3.3 | -0.2 | 3 | -6.3 | -2.7 | 4.3 | 3.2 | 3 | inhibition [21]: 2.2%; inhibition [22]: -4.5%
